# Test system: MSP1-19
# Experiment: Epitope mapping: displacement of human IgG from peptide pins on exposure to MSP1-19
# Design: species or system Plasmodium falciparum
# Conditions: change in human IgG binding to peptide pin after 1 h exposure to 50 mg/mL MSP1-19 at room temperature; normalised to no-peptide pins and control peptide GLAQG
# Procedure: A natural human IgG antibody library was tested for its ability to bind to peptides associated with the 19 kDa C-terminal region of merozoite surface protein 1 (MSP1-19) from Plasmodium falciparum (Kaslow et al., Mol. Biochem. Parasitology 63:283-289 (1994)). The 89 amino acid sequence from MSP1-19 was used for the epitope mapping experiment (see Table 1).
# Briefly, a library of pentamer peptides was synthesized on polypropylene pins following the procedures described by Geysen et al., Proc. Natl. Acad. Sci. USA 81:3998-4002 (1984). These peptides represented all five-amino-acid stretches of MSP1-19 offset by one residue (Table 1). Peptide pins were precoated in phosphate buffered saline (PBS), pH 7.2, containing 2% BSA and 0.1% TWEEN 20 for one hour at room temperature. Five successive washes of the pins were carried out for five minutes each with agitation in PBS. Human IgG (Calbiochem; San Diego Calif.) was complexed to the peptides by incubating 0.1 mg/mL IgG in PBS at 4° C. for 30 hours. Unbound antibody was removed by washing as described above in 10 mM TRIS, pH 7.4 buffer containing 150 mM NaCl (TBS) using new microtiter plates for transferring the pins for each of the five washings. Anti-human IgG (goat) alkaline phosphatase conjugate was diluted to 0.1 mg specific antibody/mL in TBS and incubated with the peptide/antibody complex for one hour at room temperature before washing five times with TBS, as described above. The pins were then incubated in assay solution containing 10 mM TRIS, pH 8.0, 150 mM NaCl, 0.5 mM MgCl2, and 0.1 mM 4-methylumbelliferyl-phosphate for 30 minutes at room temperature in the dark. Following incubation, the fluorescence intensity of the assay solution was measured in a Spectromax Gemini plate reader (Molecular Devices; Sunnyvale Calif.)(ex 358 nm/em 450 nm).
# The peptide/antibody complexes on the pins were washed five times in TBS, as described above, and incubated with 50 mg/mL MSP1-19 diluted in TBS for one hour at room temperature. The pins were washed in TBS as before and incubated in assay mixture for 30 minutes in the dark prior to measurement of the fluorescent intensity. Change in binding was determined using the equation: ΔF=(FMSP−Fb,MSP)/(F100,MSP−Fb,MSP)−(F0−Fb,0)/(F100,0−Fb,0) where FMSP and F0 are the fluorescence intensities of peptide containing pins after and before exposure to MSP1-19, respectively. Fb,MSP and Fb,0 are the fluorescence intensities of pins with no peptide after and before exposure to MSP1-19, respectively. F100,MSP and F100,0 are the fluorescence intensities of pins containing a control peptide, GLAQG (SEQ ID NO:90), after and prior to exposure to MSP1-19.
row,Molecule,ΔF (%)
1,ADAKC [Peptide 58],<5%
2,AKCTE [Peptide 60],5%
3,CDADA [Peptide 56],<5%
4,CECTK [Peptide 76],<5%
5,CFRHL [Peptide 18],<5%
6,CKCLL [Peptide 28],<5%
7,CLLNY [Peptide 30],<5%
8,CNENN [Peptide 49],16%
9,CPQNS [Peptide 12],<5%
10,CTEED [Peptide 62],<5%
11,CTKPD [Peptide 78],10%
12,CVENP [Peptide 41],<5%
13,CVKKQ [Peptide 7],<5%
14,DADAK [Peptide 57],<5%
15,DAKCT [Peptide 59],<5%
16,DEREE [Peptide 23],<5%
17,DGIFC [Peptide 88],7%
18,DKCVE [Peptide 39],<5%
19,DSGSN [Peptide 66],9%
20,DSYPL [Peptide 82],9%
21,ECKCL [Peptide 27],<5%
22,ECTKP [Peptide 77],13%
23,EDSGS [Peptide 65],7%

row,Molecule,ΔF (%)
1,EECKC [Peptide 26],<5%
2,EEDSG [Peptide 64],7%
3,EGDKC [Peptide 37],<5%
4,ENNGG [Peptide 51],<5%
5,ENPNP [Peptide 43],<5%
6,EREEC [Peptide 24],<5%
7,FDGIF [Peptide 87],9%
8,FRHLD [Peptide 19],<5%
9,GCDAD [Peptide 55],7%
10,GCFRH [Peptide 17],<5%
11,GDKCV [Peptide 38],<5%
12,GGCDA [Peptide 54],<5%
13,GIFCS [Peptide 89],11%
14,GKKIT [Peptide 71],6%
15,GSNGK [Peptide 68],<5%
16,HLDER [Peptide 21],<5%
17,HQCVK [Peptide 5],<5%
18,ISQHQ [Peptide 2],<5%
19,ITCEC [Peptide 74],5%
20,KCLLN [Peptide 29],<5%
21,KCTEE [Peptide 61],6%
22,KCVEN [Peptide 40],<5%
23,KITCE [Peptide 73],7%

row,Molecule,ΔF (%)
1,KKITC [Peptide 72],9%
2,KKQCP [Peptide 9],<5%
3,KPDSY [Peptide 80],11%
4,KQCPQ [Peptide 10],<5%
5,KQEGD [Peptide 35],<5%
6,LDERE [Peptide 22],<5%
7,LFDGI [Peptide 86],11%
8,LLNYK [Peptide 31],<5%
9,LNYKQ [Peptide 32],<5%
10,NENNG [Peptide 50],5%
11,NGGCD [Peptide 53],10%
12,NGKKI [Peptide 70],12%
13,NISQH [Peptide 1],<5%
14,NNGGC [Peptide 52],6%
15,NPNPT [Peptide 44],<5%
16,NPTCN [Peptide 46],<5%
17,NSGCF [Peptide 15],<5%
18,NYKQE [Peptide 33],<5%
19,PDSYP [Peptide 81],9%
20,PLFDG [Peptide 85],16%
21,PNPTC [Peptide 45],<5%
22,PQNSG [Peptide 13],<5%
23,PTCNE [Peptide 47],<5%

row,Molecule,ΔF (%)
1,QCPQN [Peptide 11],<5%
2,QCVKK [Peptide 6],<5%
3,QEGDK [Peptide 36],<5%
4,QHQCV [Peptide 4],<5%
5,QNSGC [Peptide 14],<5%
6,REECK [Peptide 25],<5%
7,RHLDE [Peptide 20],<5%
8,SGCFR [Peptide 16],<5%
9,SGSNG [Peptide 67],<5%
10,SNGKK [Peptide 69],<5%
11,SQHQC [Peptide 3],<5%
12,SYPLF [Peptide 83],13%
13,TCECT [Peptide 75],12%
14,TCNEN [Peptide 48],<5%
15,TEEDS [Peptide 63],<5%
16,TKPDS [Peptide 79],11%
17,VENPN [Peptide 42],<5%
18,VKKQC [Peptide 8],<5%
19,YKQEG [Peptide 34],<5%
20,YPLFD [Peptide 84],12%

# Target: Human IgG (Calbiochem; San Diego Calif.) (human)
# Experiment: IgG displaced from peptide pin; competitor MSP1-19
# Conditions: not given
row,Molecule,ΔF (%)
1,CTKPD [Peptide# 78],10%
2,VKKQC [Peptide# 8],< 5%
3,PDSYP [Peptide# 81],9%
4,YPLFD [Peptide# 84],12%
5,PLFDG [Peptide# 85],16%
6,KKQCP [Peptide# 9],< 5%
7,FDGIF [Peptide# 87],9%
8,DGIFC [Peptide# 88],7%
9,KPDSY [Peptide# 80],11%
10,SYPLF [Peptide# 83],13%
11,LFDGI [Peptide# 86],11%
12,DSYPL [Peptide# 82],9%
13,GIFCS [Peptide# 89],11%
14,TKPDS [Peptide# 79],11%

# Reference: patent US20060099648A1, “Compositions and methods for epitope mapping” (priority 2000, published 2006)
